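Protocol summary: plate cells (96-well), add compound at 5 concentrations, incubate 48 h, interpolate endpoints linearly. The concentration for 50% growth inhibition is given as GI50. TGI: total growth inhibition.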
Columns and labels:
Assay in all cases: inhibition of tumour cell growth, NCI panel, 48 h
[1] = system: NCI-H226 lung
[2] = system: HCT-15 colon
[3] = system: SN12C renal
[4] = system: MOLT-4 leukemia
[5] = system: NCI-H460 lung
[6] = system: CAKI-1 renal
[7] = system: SK-MEL-28 melanoma
[8] = system: M14 melanoma
[9] = system: SF-539 CNS
[10] = system: UACC-62 melanoma
[11] = system: HOP-62 NSCLC
[12] = system: COLO 205 colon
[13] = system: SK-MEL-5 melanoma
[14] = system: HL-60(TB) leukemia
[15] = system: NCI-H23 lung
[16] = system: MDA-MB-231 breast
[17] = system: PC-3 prostate
[18] = system: OVCAR-3 ovarian
[19] = system: SNB-19 CNS
[20] = system: LOX IMVI melanoma
[21] = system: DU-145 prostate
[22] = system: 786-0 renal
[23] = system: NCI/ADR-RES ovarian
[24] = system: CCRF-CEM leukemia
[25] = system: HCT-116 colon
[26] = system: SK-MEL-2 melanoma
[27] = system: A498 renal
[28] = system: K-562 leukemia

CCN(CC)c1ccc(/C=C2\SC(=O)C(Nc3nnc(-c4cccnc4SCc4ccccc4)o3)C2=O)cc1 (stereo not given)
TGI [1]: 57.6 µM
GI50 [2]: 3.83 µM
TGI [2]: > 100 µM
GI50 [3]: 4.11 µM
TGI [3]: > 100 µM
GI50 [4]: 3.53 µM
TGI [4]: > 100 µM
GI50 [5]: 3.21 µM
TGI [5]: > 100 µM
GI50 [6]: 4.43 µM
TGI [6]: > 100 µM
GI50 [7]: 5.29 µM
TGI [7]: 36.7 µM
GI50 [8]: 3.24 µM
TGI [8]: 13.5 µM
GI50 [9]: 3.21 µM
TGI [9]: 15.5 µM
GI50 [10]: 4.2 µM
TGI [10]: 27.4 µM
GI50 [11]: 4.32 µM
TGI [11]: 24.9 µM
GI50 [12]: 2.19 µM
TGI [12]: 4.65 µM
GI50 [13]: 3.85 µM
TGI [13]: 14.4 µM
GI50 [14]: 3.88 µM
TGI [14]: > 100 µM
GI50 [15]: 2.58 µM
TGI [15]: 8.62 µM
GI50 [16]: 2.34 µM
TGI [16]: 10.4 µM
GI50 [17]: 3.34 µM
TGI [17]: > 100 µM
GI50 [18]: 2.77 µM
TGI [18]: 6.29 µM
GI50 [19]: 6.59 µM
TGI [19]: > 100 µM
GI50 [20]: 3.76 µM
TGI [20]: > 100 µM
GI50 [21]: 2.76 µM
TGI [21]: 6.92 µM
GI50 [22]: 9.51 µM
TGI [22]: > 100 µM
GI50 [23]: 3.7 µM
TGI [23]: > 100 µM
GI50 [24]: 3.37 µM
TGI [24]: > 100 µM
GI50 [25]: 3.53 µM
TGI [25]: > 100 µM
GI50 [26]: 10.1 µM
TGI [26]: 53.2 µM
GI50 [27]: 1.76 µM
TGI [27]: 8.2 µM
GI50 [28]: 3.24 µM
TGI [28]: > 100 µM

— PubChem BioAssay (NCI)
